Results as given in the NIST ThermoML archive (doi:10.1021/je7006549).
Numbers after ± are expanded uncertainties.

Key:
[1] = 101 kPa, Liquid
[2] = mn = molality of the nth substance listed, in mol/kg; conditions: 101 kPa, Liquid

Cc1ccccc1C [1,2-dimethylbenzene]
[1]
Conditions	mass density [kg/m3]	viscosity [mPa·s]
303.15 K	872.1 ± 0.7	0.7404 ± 0.011
308.15 K	867.7 ± 0.8	0.69 ± 0.01
313.15 K	864 ± 0.8	0.6451 ± 0.0099
318.15 K	859.7 ± 0.8	0.6117 ± 0.0096
323.15 K	855.5 ± 0.8	0.5711 ± 0.0093
328.15 K	851.2 ± 0.8	0.5433 ± 0.0091
333.15 K	847.1 ± 0.9	0.5105 ± 0.0088

c1ccccc1 [benzene]
[1]
Conditions	mass density [kg/m3]	viscosity [mPa·s]
303.15 K	868 ± 0.7	0.564 ± 0.0093
308.15 K	862.2 ± 0.8	0.5232 ± 0.009
313.15 K	857 ± 0.8	0.5001 ± 0.0088
318.15 K	851.6 ± 0.8	0.4714 ± 0.0086
323.15 K	846.3 ± 0.8	0.4397 ± 0.0084
328.15 K	840.7 ± 0.9	0.4145 ± 0.0082
333.15 K	835.4 ± 0.9	0.3932 ± 0.0081

Cc1ccc(C)cc1 [1,4-dimethylbenzene]
[1]
Conditions	mass density [kg/m3]	viscosity [mPa·s]
303.15 K	852 ± 0.7	0.5726 ± 0.0093
308.15 K	847.7 ± 0.7	0.5374 ± 0.009
313.15 K	843.2 ± 0.8	0.5178 ± 0.0089
318.15 K	838.7 ± 0.8	0.4882 ± 0.0087
323.15 K	834.5 ± 0.8	0.4595 ± 0.0085
328.15 K	829.9 ± 0.8	0.4439 ± 0.0084
333.15 K	825.6 ± 0.9	0.4189 ± 0.0082

Cc1ccccc1 [toluene]
[1]
Conditions	mass density [kg/m3]	viscosity [mPa·s]
303.15 K	857.5 ± 0.7	0.5253 ± 0.009
308.15 K	852.9 ± 0.8	0.4933 ± 0.0088
313.15 K	847.9 ± 0.8	0.4717 ± 0.0086
318.15 K	843.5 ± 0.8	0.4491 ± 0.0085
323.15 K	838.7 ± 0.8	0.4244 ± 0.0083
328.15 K	834 ± 0.9	0.4082 ± 0.0082
333.15 K	829.1 ± 0.9	0.3835 ± 0.008

CCc1ccccc1 [ethylbenzene]
[1]
Conditions	mass density [kg/m3]	viscosity [mPa·s]
303.15 K	858 ± 0.7	0.5986 ± 0.0095
308.15 K	853.5 ± 0.7	0.5691 ± 0.0093
313.15 K	849.5 ± 0.8	0.5372 ± 0.009
318.15 K	844.7 ± 0.8	0.506 ± 0.0088
323.15 K	840.5 ± 0.8	0.4805 ± 0.0086
328.15 K	835.9 ± 0.8	0.4566 ± 0.0085
333.15 K	831.6 ± 0.9	0.4371 ± 0.0083

CC1=CC(=O)c2ccccc2C1=O [2-methyl-1,4-naphthalenedione] + Cc1ccc(C)cc1
[2]
Conditions	mass density [kg/m3]	viscosity [mPa·s]
303.15 K, m1 = 0.0454	854 ± 0.7	0.5859 ± 0.0094
303.15 K, m1 = 0.0902	856 ± 0.7	0.5904 ± 0.0094
303.15 K, m1 = 0.1361	858.1 ± 0.7	0.5958 ± 0.0095
303.15 K, m1 = 0.1815	860.1 ± 0.7	0.6048 ± 0.0096
303.15 K, m1 = 0.2267	862.1 ± 0.7	0.6092 ± 0.0096
303.15 K, m1 = 0.2724	864.1 ± 0.7	0.6161 ± 0.0096
308.15 K, m1 = 0.0454	849.7 ± 0.7	0.5528 ± 0.0092
308.15 K, m1 = 0.0902	851.7 ± 0.7	0.5581 ± 0.0092
308.15 K, m1 = 0.1361	853.8 ± 0.7	0.5631 ± 0.0092
308.15 K, m1 = 0.1815	855.8 ± 0.7	0.5716 ± 0.0093
308.15 K, m1 = 0.2267	857.8 ± 0.7	0.5748 ± 0.0093
308.15 K, m1 = 0.2724	859.8 ± 0.7	0.582 ± 0.0094
313.15 K, m1 = 0.0454	845.2 ± 0.8	0.5222 ± 0.0089
313.15 K, m1 = 0.0902	847.2 ± 0.8	0.5274 ± 0.009
313.15 K, m1 = 0.1361	849.3 ± 0.8	0.5349 ± 0.009
313.15 K, m1 = 0.1815	851.3 ± 0.8	0.5396 ± 0.0091
313.15 K, m1 = 0.2267	853.3 ± 0.8	0.543 ± 0.0091
313.15 K, m1 = 0.2724	855.3 ± 0.8	0.5477 ± 0.0091
318.15 K, m1 = 0.0454	840.7 ± 0.8	0.4999 ± 0.0088
318.15 K, m1 = 0.0902	842.7 ± 0.8	0.5047 ± 0.0088
318.15 K, m1 = 0.1361	844.8 ± 0.8	0.5097 ± 0.0088
318.15 K, m1 = 0.1815	846.8 ± 0.8	0.5152 ± 0.0089
318.15 K, m1 = 0.2267	848.8 ± 0.8	0.5183 ± 0.0089
318.15 K, m1 = 0.2724	850.8 ± 0.8	0.5242 ± 0.0089
323.15 K, m1 = 0.0454	836.5 ± 0.8	0.4686 ± 0.0085
323.15 K, m1 = 0.0902	838.5 ± 0.8	0.4737 ± 0.0086
323.15 K, m1 = 0.1361	840.6 ± 0.8	0.477 ± 0.0086
323.15 K, m1 = 0.1815	842.6 ± 0.8	0.4824 ± 0.0086
323.15 K, m1 = 0.2267	844.6 ± 0.8	0.4864 ± 0.0087
323.15 K, m1 = 0.2724	846.6 ± 0.8	0.4907 ± 0.0087
328.15 K, m1 = 0.0454	831.9 ± 0.8	0.4467 ± 0.0084
328.15 K, m1 = 0.0902	833.9 ± 0.8	0.4509 ± 0.0084
328.15 K, m1 = 0.1361	836 ± 0.8	0.456 ± 0.0085
328.15 K, m1 = 0.1815	838 ± 0.8	0.4615 ± 0.0085
328.15 K, m1 = 0.2267	840 ± 0.8	0.4633 ± 0.0085
328.15 K, m1 = 0.2724	842 ± 0.8	0.4698 ± 0.0086
333.15 K, m1 = 0.0454	827.6 ± 0.9	0.4225 ± 0.0082
333.15 K, m1 = 0.0902	829.6 ± 0.9	0.4258 ± 0.0082
333.15 K, m1 = 0.1361	831.7 ± 0.9	0.4309 ± 0.0083
333.15 K, m1 = 0.1815	833.7 ± 0.9	0.4364 ± 0.0083
333.15 K, m1 = 0.2267	835.7 ± 0.9	0.4384 ± 0.0083
333.15 K, m1 = 0.2724	837.7 ± 0.9	0.4429 ± 0.0084

Cc1cccc(C)c1 [1,3-dimethylbenzene]
[1]
Conditions	mass density [kg/m3]	viscosity [mPa·s]
303.15 K	855.6 ± 0.7	0.549 ± 0.0092
308.15 K	851.1 ± 0.8	0.5201 ± 0.009
313.15 K	846.9 ± 0.8	0.4967 ± 0.0088
318.15 K	842.4 ± 0.8	0.4817 ± 0.0087
323.15 K	838.3 ± 0.8	0.444 ± 0.0085
328.15 K	833.7 ± 0.9	0.435 ± 0.0084
333.15 K	829.6 ± 0.9	0.413 ± 0.0082
